From US12077503B2, “Substituted cyclic amides and their use as herbicides” (FMC CORPORATION, priority 2015, dated 2024)

Tests used:
Format in all cases: in vivo
[1] = tested on: ducksalad (Heteranthera limosa); assay: Test B flooded paddy test; conditions: Flood, 250 g ai/ha; for Plant response rating, Ducksalad: 0 to 100 scale where 0 is no effect and 100 is complete control, 13 to 15 d
How it was run: (§1)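 Visual ratings (0 none to 100 complete control) are relative to untreated plants, taken 13–15 d after treatment in a greenhouse. Test material went straight into floodwater standing 3 cm above the soil, kept constant, on plants at the 2-leaf stage.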

[2] = tested on: barnyardgrass (Echinochloa crus-galli); assay: Test B flooded paddy test; conditions: Flood, 250 g ai/ha; for Plant response rating, Barnyardgrass: 0 to 100 scale where 0 is no effect and 100 is complete control, 13 to 15 d
How it was run: as §1

[3] = tested on: sedge, umbrella (small-flower umbrella sedge, Cyperus difformis); assay: Test B flooded paddy test; conditions: Flood, 250 g ai/ha; scale of 0 to 100 where 0 is no effect and 100 is complete control
How it was run: as §1

rice (Oryra sativa) = assay: Test B flooded paddy test; conditions: Flood, 250 g ai/ha; for Plant response rating, Rice: 0 to 100 scale where 0 is no effect and 100 is complete control, 13 to 15 d
How it was run: as §1

[4] = tested on: barnyardgrass (Echinochloa crus-galli); assay: Test A preemergence
How it was run: (§2)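 Each rating is a visual injury score from 0 to 100 given about 10 d after treatment, judged against untreated controls kept alongside in the greenhouse. In loam soil–sand blend, seeds got a preemergence directed soil spray, while postemergence plants were 2 to 10 cm tall at spraying.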

Kochia (Kochia scoparia) [5] = assay: Test A preemergence
How it was run: as §2

[6] = tested on: ryegrass, Italian (Italian ryegrass, Lolium multiflorum); assay: Test A preemergence
How it was run: as §2

[7] = tested on: giant foxtail (Setaria faberii); assay: Test A preemergence
How it was run: as §2

[8] = tested on: ragweed (common ragweed, Ambrosia elatior); assay: Test A preemergence
How it was run: as §2

[9] = tested on: pigweed (Amaranthus retroflexus); assay: Test A preemergence
[10] = tested on: barnyardgrass (Echinochloa crus-galli); assay: Test A postemergence; conditions: postemergence; for Plant response rating, Barnyardgrass: 0 to 100 scale (0 no effect, 100 complete control)
How it was run: as §2

Kochia (Kochia scoparia) [11] = assay: Test A postemergence; conditions: postemergence; for Plant response rating, Kochia: 0 to 100 scale (0 no effect, 100 complete control)
How it was run: as §2

corn (Zea mays) = assay: Test A postemergence; conditions: postemergence; for Plant response rating, Corn: 0 to 100 scale (0 no effect, 100 complete control)
How it was run: as §2

[12] = tested on: ryegrass, Italian (Italian ryegrass, Lolium multiflorum); assay: Test A postemergence; conditions: postemergence; for Plant response rating, Ryegrass, Italian: 0 to 100 scale (0 no effect, 100 complete control)
How it was run: as §2

[13] = tested on: giant foxtail (Setaria faberii); assay: Test A postemergence; conditions: postemergence; for Plant response rating, Foxtail, Giant: 0 to 100 scale (0 no effect, 100 complete control)
How it was run: as §2

[14] = tested on: wheat (Triticum aestivum); assay: Test A postemergence; conditions: postemergence; for Plant response rating, Wheat: 0 to 100 scale (0 no effect, 100 complete control)
How it was run: as §2

[15] = tested on: ragweed (common ragweed, Ambrosia elatior); assay: Test A postemergence; conditions: postemergence; for Plant response rating, Ragweed: 0 to 100 scale (0 no effect, 100 complete control)
How it was run: as §2

[16] = tested on: pigweed (Amaranthus retroflexus); assay: Test A postemergence; conditions: postemergence; for Plant response rating, Pigweed: 0 to 100 scale (0 no effect, 100 complete control)
How it was run: as §2

[17] = tested on: blackgrass (Alopecurus myosuroides); assay: Test A postemergence; conditions: postemergence; for Plant response rating, Blackgrass: 0 to 100 scale (0 no effect, 100 complete control)
How it was run: as §2

[18] = tested on: Galium (catchweed bedstraw, Galium aparine); assay: Test A postemergence; conditions: postemergence; for Plant response rating, Galium: 0 to 100 scale (0 no effect, 100 complete control)
How it was run: as §2

[19] = 125 g ai/ha, Preemergence, visual injury after approximately 10 d, 0 to 100 scale where 0 is no effect and 100 is complete control
[20] = 500 g ai/ha, preemergence, 0 to 100 scale, 0 = no effect, 100 = complete control
[21] = 125 g ai/ha, preemergence, visual rating after approx. 10 d, 0 to 100 scale where 0 is no effect and 100 is complete control
[22] = 125 g ai/ha, visual rating after approx. 10 d
[23] = 500 g ai/ha, visual injury, approx. 10 d
[24] = 125 g ai/ha, visual injury after approximately 10 d
[25] = scale of 0 to 100 where 0 is no effect and 100 is complete control
[26] = 125 g ai/ha, preemergence, 0 to 100 scale where 0 is no effect and 100 is complete control
[27] = 500 g ai/ha, Preemergence, visual injury vs untreated controls after approximately 10 d
[28] = 125 g ai/ha, visual injury rating after approximately 10 d

CN1CC(c2ccc(C(C)(F)F)cc2)C(C(=O)Nc2ccc(F)cc2F)C1=O (centres unmarked) [Compound 693]
Plant response rating, Ducksalad [1]: 70
Plant response rating, Barnyardgrass [2]: 75
Sedge, Umbrella plant response rating [3]: 0
Plant response rating, Rice (rice (Oryra sativa)): 20
Plant response rating, Barnyardgrass [4, 19]: 80
Plant response rating, Barnyardgrass [4, 20]: 90
Plant response rating, Kochia (Kochia (Kochia scoparia) [5]; [19]): 80
Plant response rating, Kochia (Kochia (Kochia scoparia) [5]; [20]): 90
Plant response rating, Ryegrass, Italian [6, 21]: 60
Plant response rating, Ryegrass, Italian [6, 20]: 70
Plant response rating, Foxtail, Giant [7, 19]: 90
Plant response rating, Foxtail, Giant [7, 20]: 90
Plant response rating, Ragweed [8, 21]: 50
Plant response rating, Ragweed [8, 20]: 60
Plant response rating, Pigweed [9, 21]: 70
Plant response rating, Pigweed [9, 20]: 80
Plant response rating, Barnyardgrass [10, 22]: 70
Plant response rating, Barnyardgrass [10, 23]: 80
Plant response rating, Kochia (Kochia (Kochia scoparia) [11]; [24]): 60
Plant response rating, Kochia (Kochia (Kochia scoparia) [11]; [23]): 70
Plant response rating, Corn (corn (Zea mays); [24]): 40
Plant response rating, Corn (corn (Zea mays); [23]): 70
Plant response rating, Ryegrass, Italian [12, 24]: 50
Plant response rating, Ryegrass, Italian [12, 23]: 70
Plant response rating, Foxtail, Giant [13, 24]: 80
Plant response rating, Foxtail, Giant [13, 23]: 80
Plant response rating, Wheat [14, 24]: 0
Plant response rating, Wheat [14, 23]: 50
Plant response rating, Ragweed [15, 24]: 0
Plant response rating, Ragweed [15, 23]: 10
Plant response rating, Pigweed [16, 24]: 10
Plant response rating, Pigweed [16, 23]: 70
Plant response rating, Blackgrass [17, 22]: 10
Plant response rating, Blackgrass [17, 23]: 50
Plant response rating, Galium [18, 24]: 60
Plant response rating, Galium [18, 23]: 70

CCC1(C(=O)Nc2cccc(F)c2F)C(=O)N(C)CC1c1cccc(C(F)(F)F)c1 (centres unmarked) [Compound 694]
Plant response rating, Ducksalad [1]: 20
Plant response rating, Barnyardgrass [2]: 0
Sedge, Umbrella plant response rating [3]: 0
Plant response rating, Rice (rice (Oryra sativa)): 0
Plant response rating, Barnyardgrass [4, 19]: 70
Plant response rating, Barnyardgrass [4, 20]: 90
Plant response rating, Kochia (Kochia (Kochia scoparia) [5]; [19]): 0
Plant response rating, Kochia (Kochia (Kochia scoparia) [5]; [20]): 0
Plant response rating, Ryegrass, Italian [6, 21]: 0
Plant response rating, Ryegrass, Italian [6, 20]: 10
Plant response rating, Foxtail, Giant [7, 19]: 90
Plant response rating, Foxtail, Giant [7, 20]: 90
Plant response rating, Ragweed [8, 21]: 0
Plant response rating, Ragweed [8, 20]: 0
Plant response rating, Pigweed [9, 21]: 0
Plant response rating, Pigweed [9, 20]: 0
Plant response rating, Barnyardgrass [10, 22]: 50
Plant response rating, Barnyardgrass [10, 23]: 70
Plant response rating, Kochia (Kochia (Kochia scoparia) [11]; [24]): 0
Plant response rating, Kochia (Kochia (Kochia scoparia) [11]; [23]): 0
Plant response rating, Corn (corn (Zea mays); [24]): 0
Plant response rating, Corn (corn (Zea mays); [23]): 0
Plant response rating, Ryegrass, Italian [12, 24]: 0
Plant response rating, Ryegrass, Italian [12, 23]: 50
Plant response rating, Foxtail, Giant [13, 24]: 50
Plant response rating, Foxtail, Giant [13, 23]: 80
Plant response rating, Wheat [14, 24]: 0
Plant response rating, Wheat [14, 23]: 0
Plant response rating, Ragweed [15, 24]: 0
Plant response rating, Ragweed [15, 23]: 0
Plant response rating, Pigweed [16, 24]: 20
Plant response rating, Pigweed [16, 23]: 50
Plant response rating, Blackgrass [17, 22]: 10
Plant response rating, Blackgrass [17, 23]: 30
Plant response rating, Galium [18, 24]: 0
Plant response rating, Galium [18, 23]: 0

O=C1NC[C@H](c2cccc(C(F)(F)F)c2)[C@H]1C(=O)Nc1ccccc1[N+](=O)[O-] [Compound 825]
Ducksalad plant response rating [1, 25]: 80
Barnyardgrass plant response rating [2, 25]: 0
Sedge, Umbrella plant response rating [3]: 0
Rice plant response rating (rice (Oryra sativa); [25]): 25
Barnyardgrass plant response rating [4, 26]: 70
Barnyardgrass plant response rating (0 to 100 scale where 0 is no effect and 100 is complete control) [4, 27]: 90
Kochia plant response rating (Kochia (Kochia scoparia) [5]; [26]): 20
Kochia plant response rating (0 to 100 scale where 0 is no effect and 100 is complete control) (Kochia (Kochia scoparia) [5]; [27]): 60
Ryegrass, Italian plant response rating [6, 26]: 20
Ryegrass, Italian plant response rating (0 to 100 scale where 0 is no effect and 100 is complete control) [6, 27]: 40
Foxtail, Giant plant response rating [7, 26]: 90
Foxtail, Giant plant response rating (0 to 100 scale where 0 is no effect and 100 is complete control) [7, 27]: 90
Ragweed plant response rating [8, 26]: 20
Ragweed plant response rating (0 to 100 scale where 0 is no effect and 100 is complete control) [8, 27]: 20
Pigweed plant response rating [9, 26]: 0
Pigweed plant response rating (0 to 100 scale where 0 is no effect and 100 is complete control) [9, 27]: 30
Barnyardgrass plant response rating (0 to 100 scale, 0 no effect, 100 complete control) [10, 28]: 80
Kochia plant response rating (0 to 100 scale, 0 no effect, 100 complete control) (Kochia (Kochia scoparia) [11]; [28]): 0
Corn plant response rating (0 to 100 scale, 0 no effect, 100 complete control) (corn (Zea mays); [28]): 20
Ryegrass, Italian plant response rating (0 to 100 scale, 0 no effect, 100 complete control) [12, 28]: 20
Foxtail, Giant plant response rating (0 to 100 scale, 0 no effect, 100 complete control) [13, 28]: 90
Wheat plant response rating (0 to 100 scale, 0 no effect, 100 complete control) [14, 28]: 40
Ragweed plant response rating (0 to 100 scale, 0 no effect, 100 complete control) [15, 28]: 20
Pigweed plant response rating (0 to 100 scale, 0 no effect, 100 complete control) [16, 28]: 0
Blackgrass plant response rating (0 to 100 scale, 0 no effect, 100 complete control) [17, 28]: 40
Galium plant response rating (0 to 100 scale, 0 no effect, 100 complete control) [18, 28]: 30
